Measurements from the supplement of paper PMC12592484.

How the values were obtained:
Experiment in all cases: drug sensitivity score (DSS2, normalised partial AUC of dose-response, 72 h CellTiter-Glo viability) (DSS (dimensionless)); higher = more sensitive (stronger growth inhibition / cytotoxicity); extreme values may be limits of the assay
[1] = test system: PF179T
Method in brief: (§1)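 Low-passage primary prostate cancer-associated fibroblasts, PF179T, WPMY-1, LNCaP and 22Rv1 cells were seeded into 384-well plates carrying pre-dispensed compounds at five doses covering a 10,000-fold range. After 72 h, viability was read by CellTiter-Glo 2.0 luminescence. Responses were scaled to vehicle and positive-control wells. The drug sensitivity score (DSS2) is a partial area under the fitted logistic dose–response curve divided by the log of its upper asymptote, computed in BREEZE; higher means more sensitive.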

[2] = test system: 22Rv1
Method in brief: as §1

[3] = test system: LNCAP
Method in brief: as §1

[4] = test system: CAF#5 (primary prostate cancer-associated fibroblasts of myCAF-like type)
Method in brief: as §1

[5] = test system: CAF#1 (primary prostate cancer-associated fibroblasts of myCAF-like type)
Method in brief: as §1

[6] = test system: CAF#6 (primary prostate cancer-associated fibroblasts of iCAF-like type)
Method in brief: as §1

[7] = test system: CAF#3 (primary prostate cancer-associated fibroblasts of myCAF-like type)
Method in brief: as §1

[8] = test system: CAF#4 (primary prostate cancer-associated fibroblasts of iCAF-like type)
Method in brief: as §1

[9] = test system: CAF#2 (primary prostate cancer-associated fibroblasts of iCAF-like type)
Method in brief: as §1

[10] = test system: CAF#7 (primary prostate cancer-associated fibroblasts of myCAF-like type)
Method in brief: as §1

[11] = test system: WPMY-1
Method in brief: as §1

| SMILES | drug sensitivity score [1] | drug sensitivity score [2] | drug sensitivity score [3] | drug sensitivity score [4] | drug sensitivity score [5] | drug sensitivity score [6] | drug sensitivity score [7] | drug sensitivity score [8] | drug sensitivity score [9] | drug sensitivity score [10] | drug sensitivity score [11] |
| --- | --- | --- | --- | --- | --- | --- | --- | --- | --- | --- | --- |
| Cc1cc(Nc2ncnc3ccc(NC4=NC(C)(C)CO4)cc23)ccc1Oc1ccn2ncnc2c1 [Tucatinib] (tested concentration range 0.2-2500 nM) | 0.1 | 0 | 0.6 | 0 | 0.4 | 0.1 | 0 | 0 | 0 | 0 | 0 |
| Nc1cc(F)ccc1NC(=O)c1ccc(CNC(=O)/C=C/c2cccnc2)cc1 [Tucidinostat] (tested concentration range 1-10000 nM) | 8.9 | 9.6 | 10.6 | 10.1 | 2.4 | 3.2 | 2.9 | 5.7 | 6 | 3.9 | 7.6 |
| COC(=O)c1ccc2c(c1)[nH]c1ncnc(NCCCN3CCCCC3)c12 [UM729] (tested concentration range 1-10000 nM) | 0.1 | 3.6 | 3.3 | 1.6 | 0 | 0 | 0.3 | 0 | 0 | 0.2 | 3.9 |
| COc1cc2c(NC3CCN(C(C)C)CC3)nc(C3CCCCC3)nc2cc1OCCCN1CCCC1 [UNC0638] (tested concentration range 1-10000 nM) | 5.2 | 7.2 | 6 | 0 | 0 | 6.5 | 7.7 | 0 | 0 | 6.6 | 6.1 |
| COc1cc2c(NC3CCN(C(C)C)CC3)nc(N3CCC(F)(F)CC3)nc2cc1OCCCN1CCCC1 [UNC0642] (tested concentration range 1-10000 nM) | 0 | 5.8 | 4.5 | 0 | 0 | 0.7 | 0 | 0 | 0 | 1.9 | 4.8 |
| O=C(c1ccc(C(=O)N2CCC(N3CCCC3)CC2)c(Nc2ccccc2)c1)N1CCC(N2CCCC2)CC1 [UNC1215] (tested concentration range 1-10000 nM) | 0 | 0 | 0 | 0 | 0 | 0 | 0 | 0 | 0 | 0 | 0 |
| CCCCNc1ncc(C(=O)NCc2ccc(-n3ccnc3)cc2)c(NC2CCC(O)CC2)n1 (configuration not stated) [UNC2881] (tested concentration range 0.2-2500 nM) | 0 | 0 | 1.5 | 0.1 | 0.7 | 2 | 2.6 | 0.7 | 0.1 | 4.8 | 0 |
| CC(C)Nc1cc(-c2c[nH]c(C(=O)N[C@H](CO)c3cccc(Cl)c3)c2)c(Cl)cn1 [Ulixertinib] (tested concentration range 1-10000 nM) | 1.9 | 9.6 | 6.1 | 0.3 | 0.2 | 2 | 0 | 1.2 | 2.2 | 4.3 | 5.7 |
| CC(C)Oc1ccc(-c2nn([C@@H](C)c3oc4ccc(F)cc4c(=O)c3-c3cccc(F)c3)c3ncnc(N)c23)cc1F [Umbralisib] (tested concentration range 0.2-2500 nM) | 0 | 0 | 3.4 | 0 | 1.1 | 0 | 2.4 | 0 | 0.9 | 0 | 0 |
| CC[C@@H]1CN(C(=O)NCC(F)(F)F)C[C@@H]1c1cnc2cnc3[nH]ccc3n12 [Upadacitinib] (tested concentration range 1-10000 nM) | 0 | 0 | 0 | 0.8 | 0 | 0 | 0 | 0.1 | 1.3 | 0 | 0.5 |
| C=CC(=O)N1CC/C(=C\c2ccc(F)c([N+](=O)[O-])c2)C(=O)/C(=C/c2ccc(F)c([N+](=O)[O-])c2)C1 [VLX1570] (tested concentration range 1-10000 nM) | 22.2 | 26.9 | 21.4 | 25.1 | 26.9 | 17.5 | 17.3 | 28 | 29.7 | 19.5 | 29.3 |
| CNC(=O)c1ccccc1Nc1cc(Nc2ccc(N3CCOCC3)cc2OC)ncc1C(F)(F)F [VS-4718] (tested concentration range 1-10000 nM) | 7.5 | 7.9 | 4.5 | 13.1 | 12.9 | 8.9 | 8.1 | 7.3 | 11.9 | 12.4 | 6.8 |
| CCCC(CCC)C(=O)O [Valproic acid] (tested concentration range 100-1000000 nM) | 0 | 0 | 0 | 0 | 0 | 0 | 1.2 | 0 | 0 | 0 | 0 |
| CCCCC(=O)OCC(=O)[C@]1(O)Cc2c(O)c3c(c(O)c2[C@@H](O[C@H]2C[C@H](NC(=O)C(F)(F)F)[C@H](O)[C@H](C)O2)C1)C(=O)c1c(OC)cccc1C3=O [Valrubicin] (tested concentration range 0.5-5000 nM) | 9.6 | 14.3 | 20.6 | 8.4 | 8.6 | 9.4 | 8.7 | 4.9 | 9.3 | 11.4 | 14.9 |
| COc1cc2/c(=N/c3ccc(Br)cc3F)nc[nH]c2cc1OCC1CCN(C)CC1 [Vandetanib] (tested concentration range 0.1-1000 nM) | 0 | 0 | 0 | 4.4 | 5.1 | 0.1 | 2.4 | 4.6 | 6.4 | 0.2 | 0.4 |
| CCc1c(C(=O)C(N)=O)c2c(OCC(=O)O)cccc2n1Cc1ccccc1 [Varespladib] (tested concentration range 1-10000 nM) | 0 | 0 | 0 | 1.3 | 0 | 0 | 0 | 0 | 0 | 0 | 0 |
| C[C@]1(c2nc3c(C(N)=O)cccc3[nH]2)CCCN1 [Veliparib] (tested concentration range 1-10000 nM) | 0.5 | 1.4 | 0.7 | 0 | 1.2 | 1.7 | 2.6 | 0 | 1.5 | 1.2 | 0.8 |
| CCCS(=O)(=O)Nc1ccc(F)c(C(=O)c2c[nH]c3ncc(-c4ccc(Cl)cc4)cc23)c1F [Vemurafenib] (tested concentration range 1-10000 nM) | 2.8 | 3.4 | 3 | 4.7 | 4.3 | 0.8 | 4.4 | 3 | 5.3 | 1.6 | 1.9 |
| CC1(C)CCC(CN2CCN(c3ccc(C(=O)NS(=O)(=O)c4ccc(NCC5CCOCC5)c([N+](=O)[O-])c4)c(Oc4cnc5[nH]ccc5c4)c3)CC2)=C(c2ccc(Cl)cc2)C1 [Venetoclax] (tested concentration range 0.1-1000 nM) | 0 | 0 | 0 | 0 | 0 | 0 | 0 | 0 | 0 | 0 | 0 |
| CCCCOc1nc(N)c2c(n1)N(Cc1cccc(CN3CCCC3)c1)CC(=O)N2 [Vesatolimod] (tested concentration range 1-10000 nM) | 0 | 0 | 0 | 0 | 0 | 0 | 0 | 0 | 0 | 0 | 0 |
| CC[C@]1(O)C[C@@H]2CN(CCc3c([nH]c4ccccc34)[C@@](C(=O)OC)(c3cc4c(cc3OC)N(C)[C@H]3[C@@](O)(C(=O)OC)[C@H](OC(C)=O)[C@]5(CC)C=CCN6CC[C@]43[C@@H]65)C2)C1 [Vinblastine] (tested concentration range 0.1-1000 nM) | 5.9 | 7.7 | 24.7 | 5.2 | 4.1 | 5.1 | 2.8 | 3.6 | 5.6 | 7.5 | 11.9 |
| CC[C@]1(O)C[C@H]2CN(CCc3c([nH]c4ccccc34)[C@@](C(=O)OC)(c3cc4c(cc3OC)N(C=O)[C@H]3[C@@](O)(C(=O)OC)[C@H](OC(C)=O)[C@]5(CC)C=CCN6CC[C@]43[C@@H]65)C2)C1 [Vincristine] (tested concentration range 0.1-1000 nM) | 4.5 | 12.3 | 26 | 4.3 | 4.4 | 5.6 | 4.7 | 2 | 5.1 | 11.5 | 12.1 |
